Measurements taken from patent publication US8697739B2, “Bicyclic acetyl-CoA carboxylase inhibitors and uses thereof” (Novartis AG, priority 2010, dated 2014).
pIC50: −log10 of the molar value.

Each compound was assayed against T1, human acetyl-CoA carboxylase 2 (ACC2) (Homo sapiens, UniProt O00763) (assay: Acetyl-CoA carboxylase enzyme assay (malonyl-CoA formation by LC/MS/MS)). Settings: recombinant human ACC2 (aa 144-2458); read-out: IC50 ACC2.
T1 construct: The cDNA encoding amino acids 144 to 2458 of human acetyl-CoA carboxylase 2; made in house; host or cells: Sf9 insect cells (baculovirus, pFastBac1)
T1 sequence (O00763 144-2458): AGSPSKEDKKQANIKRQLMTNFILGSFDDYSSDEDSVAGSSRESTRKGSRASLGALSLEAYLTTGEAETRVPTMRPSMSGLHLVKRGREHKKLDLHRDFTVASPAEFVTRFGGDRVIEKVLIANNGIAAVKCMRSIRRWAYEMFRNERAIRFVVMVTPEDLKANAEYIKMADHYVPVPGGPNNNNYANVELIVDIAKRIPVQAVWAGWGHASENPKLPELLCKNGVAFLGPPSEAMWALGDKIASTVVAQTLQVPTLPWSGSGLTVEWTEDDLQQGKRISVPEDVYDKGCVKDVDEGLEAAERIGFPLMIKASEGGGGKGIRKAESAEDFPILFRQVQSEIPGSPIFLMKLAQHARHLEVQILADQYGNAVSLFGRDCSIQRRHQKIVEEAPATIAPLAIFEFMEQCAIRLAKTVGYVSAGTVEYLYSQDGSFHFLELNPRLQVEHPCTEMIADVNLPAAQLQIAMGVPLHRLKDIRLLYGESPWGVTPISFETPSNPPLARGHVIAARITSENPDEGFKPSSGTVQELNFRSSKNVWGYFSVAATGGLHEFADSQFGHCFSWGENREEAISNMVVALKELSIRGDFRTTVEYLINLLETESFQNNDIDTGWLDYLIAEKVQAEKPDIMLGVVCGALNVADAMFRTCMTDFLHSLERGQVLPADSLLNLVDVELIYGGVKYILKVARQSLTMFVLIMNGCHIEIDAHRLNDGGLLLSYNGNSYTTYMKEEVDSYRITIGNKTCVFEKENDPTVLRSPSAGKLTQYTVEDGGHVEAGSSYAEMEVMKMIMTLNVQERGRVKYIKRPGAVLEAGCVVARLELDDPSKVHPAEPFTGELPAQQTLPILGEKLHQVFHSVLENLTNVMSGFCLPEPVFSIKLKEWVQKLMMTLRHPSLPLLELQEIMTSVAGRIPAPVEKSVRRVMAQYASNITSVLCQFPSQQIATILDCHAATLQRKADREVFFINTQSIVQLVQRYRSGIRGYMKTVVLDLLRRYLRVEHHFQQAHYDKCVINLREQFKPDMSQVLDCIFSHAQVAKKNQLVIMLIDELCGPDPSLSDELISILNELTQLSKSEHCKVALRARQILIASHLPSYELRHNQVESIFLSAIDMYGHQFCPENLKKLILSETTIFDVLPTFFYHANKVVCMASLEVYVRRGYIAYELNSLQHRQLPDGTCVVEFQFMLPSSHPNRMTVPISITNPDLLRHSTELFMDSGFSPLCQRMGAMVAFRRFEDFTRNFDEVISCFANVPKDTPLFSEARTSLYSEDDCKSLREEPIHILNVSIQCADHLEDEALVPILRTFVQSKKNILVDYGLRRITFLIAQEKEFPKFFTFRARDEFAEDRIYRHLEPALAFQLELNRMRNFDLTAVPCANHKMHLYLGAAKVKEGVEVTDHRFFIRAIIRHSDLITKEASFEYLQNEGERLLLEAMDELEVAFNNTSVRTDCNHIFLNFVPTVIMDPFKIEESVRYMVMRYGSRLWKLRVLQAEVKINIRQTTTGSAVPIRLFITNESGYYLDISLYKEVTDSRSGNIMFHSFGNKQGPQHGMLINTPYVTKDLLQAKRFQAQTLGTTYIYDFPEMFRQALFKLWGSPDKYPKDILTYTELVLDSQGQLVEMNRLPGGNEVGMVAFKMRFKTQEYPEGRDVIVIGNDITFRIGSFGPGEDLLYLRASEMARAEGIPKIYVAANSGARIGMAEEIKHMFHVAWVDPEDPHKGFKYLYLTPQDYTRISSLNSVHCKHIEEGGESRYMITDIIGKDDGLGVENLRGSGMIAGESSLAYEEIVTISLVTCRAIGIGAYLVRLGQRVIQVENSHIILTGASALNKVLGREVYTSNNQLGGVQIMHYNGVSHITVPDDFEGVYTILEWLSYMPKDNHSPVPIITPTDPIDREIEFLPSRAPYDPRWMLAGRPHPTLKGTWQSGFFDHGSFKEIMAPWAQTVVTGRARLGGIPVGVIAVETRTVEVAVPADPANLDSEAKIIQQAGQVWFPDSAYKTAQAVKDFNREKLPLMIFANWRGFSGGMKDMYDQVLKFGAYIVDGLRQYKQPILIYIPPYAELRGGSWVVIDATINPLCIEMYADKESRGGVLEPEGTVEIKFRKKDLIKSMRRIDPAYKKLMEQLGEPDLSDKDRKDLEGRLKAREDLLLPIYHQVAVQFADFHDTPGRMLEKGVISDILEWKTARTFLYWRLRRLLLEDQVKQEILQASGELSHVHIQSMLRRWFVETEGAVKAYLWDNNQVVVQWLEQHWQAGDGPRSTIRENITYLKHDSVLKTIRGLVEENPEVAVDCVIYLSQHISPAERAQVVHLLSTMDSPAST
Assay type: biochemical
Outline: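 Malonyl-CoA formation was read by LC/MS/MS MRM against a [13C3]-malonyl-CoA internal standard, after acetic acid quench. The enzyme was baculovirus/Sf9-expressed human ACC2 residues 144–2458, given 15 minutes room-temperature compound preincubation in HEPES pH 7.5 buffer with MgCl2, citrate and DTT. Substrate solution held 50 μM acetyl-CoA, 120 μM ATP and 2 mM KHCO3.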
In the case of `CCN(C)C(=O)[C@H]1CC[C@H](NS(=O)(=O)c2ccc3c(Cl)c(-c4ccc(CCC(=O)O)cc4)n(C)c3c2)CC1` [Example 366, 3-(4-(3-chloro-6-(N-((1r,4r)-4-(ethyl(methyl)carbamoyl)cyclohexyl)sulfamoyl)-1-methyl-1H-indol-2-yl)phenyl)propanoic acid], the pIC50 was 7.82.
`CCN(C)C(=O)[C@H]1CC[C@H](NS(=O)(=O)c2ccc3c(Cl)c(-c4ccc(CCC(=O)OC)cc4)n(C)c3c2)CC1` [Example 367, methyl 3-(4-(3-chloro-6-(N-((1r,4r)-4-(ethyl(methyl)carbamoyl)cyclohexyl)sulfamoyl)-1-methyl-1H-indol-2-yl)phenyl)propanoate] gave a pIC50 of 7.52.
`Cn1c(C2CC2)cc2ccc(S(=O)(=O)N[C@H]3CC[C@H](C(=O)N4CCCC(C(C)(C)O)C4)CC3)cc21` (some centres unmarked) [Example 368, 2-cyclopropyl-N-((1r,4r)-4-(3-(2-hydroxypropan-2-yl)piperidine-1-carbonyl)cyclohexyl)-1-methyl-1H-indole-6-sulfonamide] gave a pIC50 of 6.84.
For `CCOC(=O)CCc1cc2ccc(S(=O)(=O)N[C@H]3CC[C@H](C(=O)N4CCCC4c4ccc(F)cc4)CC3)cc2n1C` (some centres unmarked) [Example 369, ethyl 3-(6-(N-((1r,4r)-4-(2-(4-fluorophenyl)pyrrolidine-1-carbonyl)cyclohexyl)sulfamoyl)-1-methyl-1H-indol-2-yl)propanoate], the pIC50 was 6.74.
In the case of `Cn1c(CCC(=O)O)cc2ccc(S(=O)(=O)N[C@H]3CC[C@H](C(=O)N4CCCC4c4ccc(F)cc4)CC3)cc21` (some centres unmarked) [Example 370, 3-(6-(N-((1r,4r)-4-(2-(4-fluorophenyl)pyrrolidine-1-carbonyl)cyclohexyl)sulfamoyl)-1-methyl-1H-indol-2-yl)propanoic acid], the pIC50 was 6.57.
Work on `CCOC(=O)CCc1c(Cl)c2ccc(S(=O)(=O)N[C@H]3CC[C@H](C(=O)N4CCCC4c4ccc(F)cc4)CC3)cc2n1C` (some centres unmarked) [Example 371, ethyl 3-(3-chloro-6-(N-((1r,4r)-4-(2-(4-fluorophenyl)pyrrolidine-1-carbonyl)cyclohexyl)sulfamoyl)-1-methyl-1H-indol-2-yl)propanoate] yielded a pIC50 of 6.94.
`Cn1c(CCC(=O)O)c(Cl)c2ccc(S(=O)(=O)N[C@H]3CC[C@H](C(=O)N4CCCC4c4ccc(F)cc4)CC3)cc21` (some centres unmarked) [Example 372, 3-(3-chloro-6-(N-((1r,4r)-4-(2-(4-fluorophenyl)pyrrolidine-1-carbonyl)cyclohexyl)sulfamoyl)-1-methyl-1H-indol-2-yl)propanoic acid] gave a pIC50 of 7.35.
`O=C([C@H]1CC[C@H](NS(=O)(=O)c2ccc3c(Cl)c(-c4ccccc4)[nH]c3c2)CC1)N1CCCCC1` [Example 373, 3-chloro-2-phenyl-N-((1r,4r)-4-(piperidine-1-carbonyl)cyclohexyl)-1H-indole-6-sulfonamide] was tested, and the pIC50 was 7.12.
Compound `Cn1c(-c2ccccc2)c(Cl)c2ccc(S(=O)(=O)N[C@H]3CC[C@H](C(=O)N4CCCCC4)CC3)cc21` [Example 374, 3-chloro-1-methyl-2-phenyl-N-((1r,4r)-4-(piperidine-1-carbonyl)cyclohexyl)-1H-indole-6-sulfonamide] has a pIC50 of 7.70.
`O=C([C@H]1CC[C@H](NS(=O)(=O)c2ccc3cc(-c4ccccc4)[nH]c3c2)CC1)N1CCCCC1` [Example 375, 2-phenyl-N-((1r,4r)-4-(piperidine-1-carbonyl)cyclohexyl)-1H-indole-6-sulfonamide] gave a pIC50 of 7.12.
In the case of `Cn1c(-c2ccccc2)cc2ccc(S(=O)(=O)N[C@H]3CC[C@H](C(=O)N4CCCCC4)CC3)cc21` [Example 376, 1-methyl-2-phenyl-N-((1r,4r)-4-(piperidine-1-carbonyl)cyclohexyl)-1H-indole-6-sulfonamide], the pIC50 was 7.02.
Compound `COC[C@@H](NC(=O)[C@H]1CC[C@H](NS(=O)(=O)c2ccc3cc(C4CC4)n(C)c3c2)CC1)c1ccccc1` [Example 377, (1r,4S)-4-(2-cyclopropyl-1-methyl-1H-indole-6-sulfonamido)-N-((S)-2-methoxy-1-phenylethyl)cyclohexanecarboxamide] has a pIC50 of 8.00.
`Cn1c(-c2ccccc2)cc2ccc(S(=O)(=O)N[C@H]3CC[C@H](C(=O)N4CCCC(C(C)(C)O)C4)CC3)cc21` (some centres unmarked) [Example 378, N-((1r,4r)-4-(3-(2-hydroxypropan-2-yl)piperidine-1-carbonyl)cyclohexyl)-1-methyl-2-phenyl-1H-indole-6-sulfonamide] was tested, and the pIC50 was 8.00.
`COc1ccc(COC(=O)C2(C)CCC(NS(=O)(=O)c3ccc4c(ccn4C)c3)CC2)cc1` (centres unmarked) [Example 379, 4-methoxybenzyl 1-methyl-4-(1-methyl-1H-indole-5-sulfonamido)cyclohexanecarboxylate] showed a pIC50 of 6.24.
`Cn1c(C2CC2)c(C#N)c2ccc(S(=O)(=O)N[C@H]3CC[C@H](C(=O)N4CCN[C@@H](C(F)(F)F)C4)CC3)cc21` [Example 380, 3-cyano-2-cyclopropyl-1-methyl-N-((1R,4r)-4-((R)-3-(trifluoromethyl)piperazine-1-carbonyl)cyclohexyl)-1H-indole-6-sulfonamide] was tested, and the pIC50 was 7.12.
Work on `Cn1c(C2CC2)c(C#N)c2ccc(S(=O)(=O)N[C@H]3CC[C@H](C(=O)N4CCCCC4)CC3)cc21` [Example 381, 3-cyano-2-cyclopropyl-1-methyl-N-((1r,4r)-4-(piperidine-1-carbonyl)cyclohexyl)-1H-indole-6-sulfonamide] yielded a pIC50 of 6.68.
`C[C@H]1CCCCN1C(=O)[C@H]1CC[C@H](NS(=O)(=O)c2ccc3c(C#N)c(C4CC4)n(C)c3c2)CC1` [Example 382, 3-cyano-2-cyclopropyl-1-methyl-N-((1S,4r)-4-((S)-2-methylpiperidine-1-carbonyl)cyclohexyl)-1H-indole-6-sulfonamide] was tested, and the pIC50 was 7.02.
With `CC(C)(O)C1CCCN(C(=O)[C@H]2CC[C@H](NS(=O)(=O)c3ccc4c(Cl)c(-c5ccccc5)[nH]c4c3)CC2)C1` (some centres unmarked) [Example 383, 3-chloro-N-((1r,4r)-4-(3-(2-hydroxypropan-2-yl)piperidine-1-carbonyl)cyclohexyl)-2-phenyl-1H-indole-6-sulfonamide] the pIC50 was greater than 8.00.
With `Cn1c(-c2ccccc2)c(Cl)c2ccc(S(=O)(=O)N[C@H]3CC[C@H](C(=O)N4CCCC(C(C)(C)O)C4)CC3)cc21` (some centres unmarked) [Example 384, 3-chloro-N-((1r,4r)-4-(3-(2-hydroxypropan-2-yl)piperidine-1-carbonyl)cyclohexyl)-1-methyl-2-phenyl-1H-indole-6-sulfonamide] the pIC50 was greater than 8.00.
`Cn1ccc2cc(S(=O)(=O)NC3CCC(C)(C(=O)N4CCOCC4)CC3)ccc21` (centres unmarked) [Example 385, 1-methyl-N-(4-methyl-4-(morpholine-4-carbonyl)cyclohexyl)-1H-indole-5-sulfonamide] was tested, and the pIC50 was 6.04.
For `COC(=O)CCc1ccc(-c2cc3ccc(S(=O)(=O)N[C@H]4CC[C@H](C(=O)N5CCCC5c5ccc(F)cc5)CC4)cc3n2C)cc1` (some centres unmarked) [Example 386, methyl 3-(4-(6-(N-((1r,4r)-4-(2-(4-fluorophenyl)pyrrolidine-1-carbonyl)cyclohexyl)sulfamoyl)-1-methyl-1H-indol-2-yl)phenyl)propanoate], the pIC50 was 7.60.
Compound `Cn1c(-c2ccc(CCC(=O)O)cc2)cc2ccc(S(=O)(=O)N[C@H]3CC[C@H](C(=O)N4CCCC4c4ccc(F)cc4)CC3)cc21` (some centres unmarked) [Example 387, 3-(4-(6-(N-((1r,4r)-4-(2-(4-fluorophenyl)pyrrolidine-1-carbonyl)cyclohexyl)sulfamoyl)-1-methyl-1H-indol-2-yl)phenyl)propanoic acid] has a pIC50 greater than 8.00.
Compound `CC(C)OC(=O)C1(C)CCC(NS(=O)(=O)c2ccc3c(ccn3C)c2)CC1` (centres unmarked) [Example 388, isopropyl 1-methyl-4-(1-methyl-1H-indole-5-sulfonamido)cyclohexanecarboxylate] has a pIC50 of 6.96.
Work on `Cn1c(C2CC2)c(C#N)c2ccc(S(=O)(=O)N[C@H]3CC[C@H](C(=O)N4CCC[C@@H]4C(F)(F)F)CC3)cc21` [Example 389, 3-cyano-2-cyclopropyl-1-methyl-N-((1R,4r)-4-((R)-2-(trifluoromethyl)pyrrolidine-1-carbonyl)cyclohexyl)-1H-indole-6-sulfonamide] yielded a pIC50 of 7.82.
`Cn1c(C2CC2)c(C#N)c2ccc(S(=O)(=O)N[C@H]3CC[C@H](C(=O)N4CCCC4C(C)(C)C)CC3)cc21` (some centres unmarked) [Example 390, N-((1r,4r)-4-(2-tert-butylpyrrolidine-1-carbonyl)cyclohexyl)-3-cyano-2-cyclopropyl-1-methyl-1H-indole-6-sulfonamide] showed a pIC50 of 8.00.
Compound `CCOC(=O)C1(C)CCC(NS(=O)(=O)c2ccc3c(ccn3C)c2)CC1` (centres unmarked) [Example 391, ethyl 1-methyl-4-(1-methyl-1H-indole-5-sulfonamido)cyclohexanecarboxylate] has a pIC50 of 6.12.
Work on `Cn1c(-c2ccc(CCC(=O)O)cc2)cc2ccc(S(=O)(=O)N[C@H]3CC[C@H](C(=O)N4CCC[C@@H]4c4ccc(F)cc4)CC3)cc21` [Example 392, 3-(4-(6-(N-((1R,4r)-4-((R)-2-(4-fluorophenyl)pyrrolidine-1-carbonyl)cyclohexyl)sulfamoyl)-1-methyl-1H-indol-2-yl)phenyl)propanoic acid] yielded a pIC50 of 6.94.
Work on `Cn1c(-c2ccc(CCC(=O)O)cc2)cc2ccc(S(=O)(=O)N[C@H]3CC[C@H](C(=O)N4CCC[C@H]4c4ccc(F)cc4)CC3)cc21` [Example 393, 3-(4-(6-(N-((1S,4r)-4-((S)-2-(4-fluorophenyl)pyrrolidine-1-carbonyl)cyclohexyl)sulfamoyl)-1-methyl-1H-indol-2-yl)phenyl)propanoic acid] yielded a pIC50 greater than 8.00.
Work on `COC(=O)CCc1ccc(-c2cc3ccc(S(=O)(=O)N[C@H]4CC[C@H](C(=O)N5CCCC5C(C)(C)C)CC4)cc3n2C)cc1` (some centres unmarked) [Example 394, methyl 3-(4-(6-(N-((1r,4r)-4-(2-tert-butylpyrrolidine-1-carbonyl)cyclohexyl)sulfamoyl)-1-methyl-1H-indol-2-yl)phenyl)propanoate] yielded a pIC50 of 7.82.
